Non-standard residues stand in square brackets, D forms with d. *: point of attachment. Phe(3-I) = N[C@@H](Cc1cccc(I)c1)C(=O)O; ACC = NC(=O)Cc1cc(=O)oc2cc(N*)ccc12; hCha = N[C@@H](CCC1CCCCC1)C(=O)O; hPhe = N[C@@H](CCc1ccccc1)C(=O)O; 3Pal = N[C@@H](Cc1cccnc1)C(=O)O; OBn = c1ccc(CO*)cc1
Columns and labels:
[1] = test system: PMA/LPS-treated THP-1 cells; assay: Western blot of GSDMD and IL-1β processing after DAMP treatment; assay type: cell-based, human
Experimental: THP-1 cells were seeded and stimulated with PMA and LPS, as described in “Protein analysis of PMA-differentiated THP-1 cells” section. After stimulation, vimentin, citrullinated vimentin, or their cleavage products-generated by caspase-3 or calpain-1 digestion were added to the cells, which were then incubated for an additional 48 h. Following incubation, lactate dehydrogenase (LDH) activity in the supernatant was measured using the CytoTox 96 Non-Radioactive Cytotoxicity Assay (G1718) as an indicator of membrane disruption, according to the manufacturer’s protocol. Cytotoxicity was calculated as the percentage of LDH released from the treated samples relative to the LDH release induced by the lysis buffer and normalized to the spontaneous release from the control cells. Absorbance was measured at 490 nm using a spectrophotometric microplate reader (Gemini XPS, Molecular Devices). All experiments were independently performed in triplicate. Statistical analyses were performed using GraphPad Prism software (GraphPad Software, Inc., La Jolla, CA, USA). One-way ANOVA followed by Tukey’s multiple comparisons posthoc test was used to determine statistical significance. For Western blot analysis, proteins from the cell lysates were prepared as described in “Protein analysis of PMA-differentiated THP-1 cells”. To isolate proteins from the supernatant, 1 mL of the sample was mixed with 0.5 mL of 30% trichloroacetic acid (TCA) at room temperature and incubated on ice for 30 min. The mixture was centrifuged at 12,000 × g for 20 min at 4 °C. The supernatant was discarded, and the pellet was washed with 100 μL of 10% TCA, followed by centrifugation. The pellet was then washed with 300 μL of acetone, centrifuged again, and allowed to dry completely. The remaining residues were dissolved in SDS-PAGE loading buffer under reducing conditions. Proteins of interest were detected using primary antibodies against GSDMD and interleukin-1β (IL-1β), followed by secondary antirabbit antibodies conjugated with Alexa Fluor 800. Fluorescence signals were visualized using an Azure Biosystems Sapphire RGB-NIR biomolecular imager. Ponceau S staining was used as a loading control to verify equal protein loading in the SDS-PAGE.

PAD2 = assay: Trypsin-coupled fluorogenic citrullination assay of ACC substrates with recombinant PAD2; assay type: biochemical, human; details: for citrullination of substrate by PAD2: substrate 10 μM, PAD2 37.5-300 nM (effective at 150-300 nM), 15 min preincubation, then trypsin 5 nM, ACC fluorescence ex 355/em 460 nm, pH 7.2, 5 mM CaCl2, triplicate; for selectivity for PAD2 over PAD4: comparison of citrullination by PAD2 and PAD4, 37.5-300 nM enzyme
Experimental: (§1) All kinetic studies were conducted using an fMax fluorescence plate reader (Molecular Devices) operating in the fluorescence kinetic mode with 96- or 384-well plates. The fluorescence of ACC was monitored at excitation and emission wavelengths of 355 and 460 nm, respectively. The assay buffers for PADs and trypsin consisted of 100 mM TRIS-HCl, 10 mM NaCl, 5 mM CaCl2, and 5 mM DTT (pH 7.2). All experiments, including library screening and substrate kinetics, were repeated at least three times and the average values were reported. Kinetic data were analyzed using GraphPad Prism software (version 10.2.0).
(§2) Substrate screening for PAD2 and PAD4 was performed at a final substrate concentration of 10 μM, as described in “PAD substrate specificity profiling section”. PAD2 and PAD4 were tested across a concentration range of 37.5 nM to 300 nM, whereas the trypsin concentration was 5 nM. Briefly, each substrate was preincubated with the specified concentration of PAD in a 50 μL reaction volume (or in 50 μL of buffer for PAD-untreated control) for 15 min, after which 50 μL of trypsin was added to the reaction wells. The hydrolysis of Arg-containing substrates by trypsin was monitored over time. The percentage of substrate citrullination was calculated by comparing the extent of trypsin-mediated cleavage of untreated substrates with that of substrates preincubated with PAD. Each assay was performed in triplicate, and the resulting citrullination percentages are presented graphically. The standard deviation of each data point was less than 15%.

PAD4 [2] = assay: Trypsin-coupled fluorogenic citrullination assay of ACC substrates with recombinant PAD4; assay type: biochemical, human; details: for citrullination of substrate by PAD4: substrate 10 μM, PAD4 37.5-300 nM, 15 min preincubation, then trypsin 5 nM, ACC fluorescence ex 355/em 460 nm, pH 7.2, 5 mM CaCl2, triplicate; for selectivity for PAD4 over PAD2: comparison of citrullination by PAD4 and PAD2, 37.5-300 nM enzyme
Experimental: as §1, §2

THP-1 cells = assay: Protein analysis of PMA-differentiated THP-1 cells (Western blot); assay type: cell-based, human; details: for GSDMD cleavage / caspase-1 processing to p10 fragment / vimentin and GSDMD protein levels: 1 h pretreatment before 40 nM PMA; for GSDMD cleavage / caspase-1 processing to p10 fragment: BAPTA 10 μM, calpeptin 100 μM; for caspase-1 processing to p10 fragment / vimentin and GSDMD protein levels: Cl-amidine 25 μM, Z-DEVD-FMK 10 μM, VX-765 10 μM
Experimental: Low-passage THP-1 cells were seeded into 12-well plates and treated with increasing concentrations of phorbol 12-myristate 13-acetate (PMA) ranging from 1 nM to 100 nM. The cells were incubated for 24 h to allow adherence and differentiation. Following incubation, the cells were lysed, and the lysates were subjected to SDS-PAGE (200 V, 30 min) and Western blot analysis. The expression and cleavage of vimentin, gasdermin D (GSDMD), NLRP3, and caspase-1 were analyzed using specific primary antibodies (1:500–1:1,000), followed by incubation with an antirabbit secondary antibody conjugated to Alexa Fluor 800 (1:10,000). Fluorescence signals were detected using an Azure Biosystems Sapphire RGB-NIR biomolecular imager. Ponceau S staining was used as a loading control to ensure equal protein loading in each lane. In a subsequent experiment, THP-1 cells were pretreated with specific inhibitors for 1 h prior to PMA-induced differentiation (40 nM PMA). The inhibitors used were: BAPTA (10 μM, calcium chelator), calpeptin (100 μM, calpain inhibitor), 4-bisindolylmaleimide (25 μM, PKC inhibitor), N-α-benzoyl-N5-(2-chloro-1-iminoethyl)-L-Orn amide or Cl-amidine (25 μM, pan PAD inhibitor, PADi), Z-DEVD-FMK (10 μM, caspase-3 inhibitor), and VX-765 (10 μM, caspase-1 inhibitor). After PMA treatment, the cells were lysed, and the lysates were processed for SDS-PAGE (200 V, 30 min) and Western blotting. Protein detection and visualization were performed in the same manner as in the cell-based experiments without inhibitors.

PAD4 [3] = assay: Vimentin citrullination assay (Western blot); assay type: biochemical, human; details: recombinant vimentin 80 μg, 100 nM PAD4, 5-60 min
Experimental: Recombinant vimentin (80 μg) was incubated with 100 nM PAD4 for varying durations (5–60 min). Following incubation, the samples were subjected to SDS-PAGE, and the proteins were subsequently transferred onto a nitrocellulose membrane. Western blot analysis was performed using antivimentin and anticitrullinated vimentin antibodies, followed by a secondary antibody conjugated to Alexa Fluor 800 to assess the time-dependent decrease in native vimentin levels and the corresponding increase in citrullinated vimentin levels. Subsequently, both native and citrullinated vimentin were incubated with either human recombinant caspase-3 (20 nM) or calpain-1 (10 nM) for 30 min. After incubation, the samples were analyzed by SDS-PAGE followed by colloidal Coomassie dye G-250 (Thermo, 24590) staining.

Molecule: CO[C@@H]1C[C@@H](C[C@H]2CC[C@H](C)[C@H]([C@@H](C)C(=O)O)O2)O[C@]2(O[C@](C)([C@H]3CC[C@@](C)([C@@H]4O[C@@H]([C@H]5O[C@@](O)(CO)[C@H](C)C[C@@H]5C)C[C@@H]4C)O3)C[C@H]2C)[C@@H]1C [nigericin, reference compound]
- GSDMD processing fragment [1]: p31 fragment
- pro-IL-1β processing [1]: activation of pro-interleukin-1β

Molecule: Ac-[Phe(3-I)][hCha]DR-{ACC} (SMILES CC(=O)N[C@@H](Cc1cccc(I)c1)C(=O)N[C@@H](CCC1CCCCC1)C(=O)N[C@@H](CC(=O)O)C(=O)N[C@@H](CCCNC(=N)N)C(=O)Nc1ccc2c(CC(N)=O)cc(=O)oc2c1) [(4)-NH-13]
- citrullination of substrate by PAD2 (PAD2): some degree of cross-reactivity

Molecule: Ac-NV[hCha]R-{ACC} (SMILES CC(=O)N[C@@H](CC(N)=O)C(=O)N[C@H](C(=O)N[C@@H](CCC1CCCCC1)C(=O)N[C@@H](CCCNC(=N)N)C(=O)Nc1ccc2c(CC(N)=O)cc(=O)oc2c1)C(C)C) [(2)-NH-8]
- citrullination of substrate by PAD4 (PAD4 [2]): only minor processing
- selectivity for PAD2 over PAD4 (PAD2): most selective
- citrullination of substrate by PAD2 (PAD2): higher reactivity

Molecule: CCCC[C@@H](C=O)NC(=O)[C@H](CC(C)C)NC(=O)OCc1ccccc1 [calpeptin]
- GSDMD cleavage (THP-1 cells): cleavage of GSDMD
- caspase-1 processing to p10 fragment (THP-1 cells): processed into its active 10 kDa fragment

Molecule: Ac-[dY]A[hPhe]R-{ACC} (SMILES CC(=O)N[C@H](Cc1ccc(O)cc1)C(=O)N[C@@H](C)C(=O)N[C@@H](CCc1ccccc1)C(=O)N[C@@H](CCCNC(=N)N)C(=O)Nc1ccc2c(CC(N)=O)cc(=O)oc2c1) [(2)-NH-7]
- citrullination of substrate by PAD4 (PAD4 [2]): only minor processing
- selectivity for PAD2 over PAD4 (PAD2): most selective
- citrullination of substrate by PAD2 (PAD2): higher reactivity

Molecule: COC(=O)CC[C@H](NC(=O)[C@H](CC(=O)OC)NC(=O)OCc1ccccc1)C(=O)N[C@H](C(=O)N[C@@H](CC(=O)OC)C(=O)CF)C(C)C [Z-DEVD-fmk, Z-DEVD-FMK]
- caspase-1 processing to p10 fragment (THP-1 cells): prevented
- vimentin and GSDMD protein levels (THP-1 cells): marked downregulation

Molecule: Ac-[Phe(3-I)][3Pal]DR-{ACC} (SMILES CC(=O)N[C@@H](Cc1cccc(I)c1)C(=O)N[C@@H](Cc1cccnc1)C(=O)N[C@@H](CC(=O)O)C(=O)N[C@@H](CCCNC(=N)N)C(=O)Nc1ccc2c(CC(N)=O)cc(=O)oc2c1) [(4)-NH-12]
- selectivity for PAD4 over PAD2 (PAD4 [2]): most selective
- citrullination of substrate by PAD4 (PAD4 [2]): efficiently processed
- citrullination of substrate by PAD2 (PAD2): poorly recognized

Molecule: Ac-D(OBn)[hCha]DR-{ACC} (SMILES CC(=O)N[C@@H](CC(=O)OCc1ccccc1)C(=O)N[C@@H](CCC1CCCCC1)C(=O)N[C@@H](CC(=O)O)C(=O)N[C@@H](CCCNC(=N)N)C(=O)Nc1ccc2c(CC(N)=O)cc(=O)oc2c1) [(4)-NH-11]
- citrullination of substrate by PAD2 (PAD2): some degree of cross-reactivity

Molecule: N=C(CCl)NCCC[C@H](NC(=O)c1ccccc1)C(N)=O [Cl-amidine, N-α-benzoyl-N5-(2-chloro-1-iminoethyl)-L-Orn amide]
- caspase-1 processing to p10 fragment (THP-1 cells): prevented
- vimentin and GSDMD protein levels (THP-1 cells): marked downregulation

Molecule: citrullinated vimentin: PAD4-mediated citrullinated vimentin
- pro-IL-1β processing [1]: no cleavage

Molecule: Ac-D(OBn)[dY]DR-{ACC} (SMILES CC(=O)N[C@@H](CC(=O)OCc1ccccc1)C(=O)N[C@H](Cc1ccc(O)cc1)C(=O)N[C@@H](CC(=O)O)C(=O)N[C@@H](CCCNC(=N)N)C(=O)Nc1ccc2c(CC(N)=O)cc(=O)oc2c1) [(4)-NH-2]
- selectivity for PAD4 over PAD2 (PAD4 [2]): most selective
- citrullination of substrate by PAD4 (PAD4 [2]): efficiently processed
- citrullination of substrate by PAD2 (PAD2): poorly recognized

Molecule: CCCCCCCCCCCCCC(=O)O[C@@H]1[C@@H](C)[C@@]2(O)[C@@H](C=C(CO)C[C@]3(O)C(=O)C(C)=C[C@@H]23)[C@@H]2C(C)(C)[C@]12OC(C)=O [PMA, phorbol 12-myristate 13-acetate]
- GSDMD and NLRP3 protein levels (THP-1 cells; PMA 1-100 nM, 24 h): downregulating
- vimentin protein level (THP-1 cells; PMA 1-100 nM, 24 h): dose-dependent upregulation

Molecule: vimentin: Recombinant vimentin, purchased from Biotechne (NBP2-35139)
- pro-IL-1β processing [1]: no cleavage
- citrullination of vimentin by PAD4 (PAD4 [3]): efficient citrullination

Molecule: O=C(O)CN(CC(=O)O)c1ccccc1OCCOc1ccccc1N(CC(=O)O)CC(=O)O [BAPTA]
- GSDMD cleavage (THP-1 cells): cleavage of GSDMD
- caspase-1 processing to p10 fragment (THP-1 cells): processed into its active 10 kDa fragment

Molecule: CCO[C@@H]1OC(=O)C[C@@H]1NC(=O)[C@@H]1CCCN1C(=O)[C@@H](NC(=O)c1ccc(N)c(Cl)c1)C(C)(C)C [VX-765]
- caspase-1 processing to p10 fragment (THP-1 cells): prevented
- vimentin and GSDMD protein levels (THP-1 cells): marked downregulation

— PMC12509316, “Isoform-Selective PAD2/PAD4 Substrates with Unnatural Amino Acids Enable Cellular Peptidylarginine Deiminase Activity Profiling and Reveal Vimentin Citrullination Effects in Macrophages” (Biochemistry, 2025)
